Measurements taken from patent publication US7534444B2, “Molecular mimetics of meningococcal B epitopes which elicit functionally active antibodies” (priority 2001, dated 2009).
Ends that are not written are not given here.

B1: rGNA33: recombinant GNA33 of strain 2996, soluble protein without signal and lipid modification sequences (protein)
chain: MKKYLFRAALCGIAAAILAACQSKSIQTFPQPDTSVINGPDRPVGIPDPAGTTVGGGGAVYTVVPHLSLPHWAAQDFAKSLQSFRLGCANLKNRQGWQDVCAQAFQTPVHSVQAKQFFERYFTPWQVAGNGSLAGTVTGYYEPVLKGDDRRTAQARFPIYGIPDDFISVPLPAGLRSGKALVRIRQTGKNSGTIDNTGGTHTADLSQFPITARTTAIKGRFEGSRFLPYHTRNQINGGALDGKAPILGYAEDPVELFFMHIQGSGRLKTPSGKYIRIGYADKNEHPYVSIGRYMADKGYLKLGQTSMQGIKAYMQQNPQRLAEVLGQNPSYIFFRELTGSSNDGPVGALGTPLMGEYAGAVDRHYITLGAPLFVATAHPVTRKALNRLIMAQDTGSAIKGAVRVDYFWGYGDEAGELAGKQKTTGYVWQLLPNGMKPEYRP

Assays:
anti-GNA33 mAb 25 = assay: Peptide binding assay with cellulose-bound spot-synthesised peptides; set-up: species or system mouse; conditions: for Dye Units (binding of anti-GNA33 mAb 25): mAb 25 6 μg/ml; for Relative Binding (of anti-GNA33 mAb 25): alanine substitution of PorA loop 4 VR type P1.2-2 10-mer
Experimental: Peptide spot synthesis was carried out on amino-PEG-cellulose membranes (ABIMED, Langerfeld, Germany) using a model ASP 222 automated spot synthesizer (ABIMED) and diisopropylcarbodiimide (DIC)/N-hydroxybenzotriazole (HOBt) activation (Frank and Overwin, Methods Mol. Biol. (1996) 66:149-169). In situ-prepared 0.2 M HOBt esters of fluorenylmethoxycarbonyl (Fmoc)-amino acid derivatives were used for the coupling reaction. […] After the final cycle, all the peptides were N-terminally acetylated with 2% acetic anhydride. At the end of the synthesis, the side-chain protecting groups were removed using a mixture of trifluoroacetic acid/triisobutylsilane/water/dichloromethane (50/3/2/45).
Cellulose-bound peptides were soaked in ethanol to prevent hydrophobic interactions between the peptides. Non-specific binding was blocked by incubating cellulose sheets overnight at 4° C. with 10 ml of 2% casein in Tris buffered saline (TBS: 50 mM Tris-HCl, 137 mM NaCl, […], pH 7.0), containing 0.05% TWEEN® 20 (T-TBS). The sheets were incubated for 2 hr at 37° C. with the anti-GNA33 mAb 25 (6 μg/ml) or an anti-PorA 1.2 mAb diluted 1:100 in T-TBS blocking buffer. Alkaline phosphatase-conjugated goat anti-mouse IgG (BioRad) was then added at 1:3000 dilution in T-TBS blocking buffer for 1 hr at 37° C. Sheets were washed three times with T-TBS and detection of binding was achieved by incubating the sheets with bromo-4-chloro-3-indolyl-phosphate (BCIP) (Sigma, Steinheim, Germany) and […] in substrate buffer (100 mM Tris, pH 8.9, 100 mM NaCl, 2 mM MgCl2). Quantitative evaluation of the signal was obtained using a Umax Speedy II 2200 optical scanner.

[1] = biological target: PorA of N. meningitidis strain 2996 (B:2b:P1.5,2) (Neisseria meningitidis serogroup B strain 2996); assay: cell-based or functional assay
[2] = biological target: PorA of N. meningitidis strain 8047 (B:2b:P1.5,2) (Neisseria meningitidis serogroup B strain 8047); assay: cell-based or functional assay
[3] = biological target: PorA of N. meningitidis strain BZ232 (B:NT:P1.2) (Neisseria meningitidis serogroup B strain BZ232); assay: cell-based or functional assay
[4] = biological target: PorA of N. meningitidis strain M3735 (B:NT:P1.5,2) (Neisseria meningitidis serogroup B strain M3735); assay: cell-based or functional assay
[5] = biological target: PorA of N. meningitidis strain M5545 (B:NT:P1.5,2) (Neisseria meningitidis serogroup B strain M5545); assay: cell-based or functional assay
[6] = biological target: PorA of N. meningitidis strain M5682 (B:2a:P1.5,2) (Neisseria meningitidis serogroup B strain M5682); assay: cell-based or functional assay
[7] = biological target: PorA of N. meningitidis strain M5954 (C:2a:P1.2) (Neisseria meningitidis serogroup C strain M5954); assay: cell-based or functional assay
[8] = biological target: PorA of N. meningitidis strain M986 (B:2a:P1.5,2) (Neisseria meningitidis serogroup B strain M986); assay: cell-based or functional assay
[9] = biological target: PorA of N. meningitidis strain NMB (B:2b:P1.5,2) (Neisseria meningitidis serogroup B strain NMB); assay: cell-based or functional assay
[10] = tested on: P1.2 epitope of PorA loop 4; assay: Immunization of CD1 mice with rGNA33 in Freund's adjuvant; format: in vivo; conditions: recombinant protein simply mixed with Freund's adjuvant, without renaturation
Experimental: In order to prepare antisera against GNA33, 20 μg of purified HT-GNA33 or untagged rGNA33 was used to immunize six-week old CD1 female mice (four to ten mice per group). The mice were obtained from Charles River (Italia S.P.A., Calco, Italy, or Hollister, Calif.). The recombinant protein was given i.p, together with complete Freund's adjuvant (CFA) for the first dose and incomplete Freund's adjuvant (IFA) for the second (day 21) and third (day 35) booster doses. Blood samples were taken on days 34 and 49.

[11] = tested on: encapsulated MenB strain 2996; conditions: mice immunized; measured against encapsulated MenB strain 2996; cited from earlier work
[12] = overlapping decapeptides from GNA33
[13] = overlapping decapeptides from loop 4 of PorA P1.2 (strain 2996)

| Molecule | Dye Units (binding of anti-GNA33 mAb 25) (anti-GNA33 mAb 25; [12]) | Dye Units (binding of anti-GNA33 mAb 25) (anti-GNA33 mAb 25; [13]) | other results |
| --- | --- | --- | --- |
| AFQTPVHSFQ | 24 Dye Units |  |  |
| AHFVQQTPQS (Ac-AHFVQQTPQS) |  | 14 Dye Units |  |
| AQAFQTPVHS | 30 Dye Units |  |  |
| DVSAQAFQTP | 23 Dye Units |  |  |
| FQTPVHSFQA | 22 Dye Units |  |  |
| FVQQTPQSQP (Ac-FVQQTPQSQP) |  | 9 Dye Units |  |
| HFVQQTPQSQ (Ac-HFVQQTPQSQ) |  | 15 Dye Units |  |
| PAA FVQ QTP Q (Ac-PAAFVQQTPQ) |  |  | Relative Binding (of anti-GNA33 mAb 25) (anti-GNA33 mAb 25): 8 |
| PAH AVQ QTP Q (Ac-PAHAVQQTPQ) |  |  | Relative Binding (of anti-GNA33 mAb 25) (anti-GNA33 mAb 25): 1 |
| PAH FAQ QTP Q (Ac-PAHFAQQTPQ) |  |  | Relative Binding (of anti-GNA33 mAb 25) (anti-GNA33 mAb 25): 4 |
| PAH FVA QTP Q (Ac-PAHFVAQTPQ) |  |  | Relative Binding (of anti-GNA33 mAb 25) (anti-GNA33 mAb 25): 2 |
| PAH FVQ ATP Q (Ac-PAHFVQATPQ) |  |  | Relative Binding (of anti-GNA33 mAb 25) (anti-GNA33 mAb 25): 0 |
| PAH FVQ QAP Q (Ac-PAHFVQQAPQ) |  |  | Relative Binding (of anti-GNA33 mAb 25) (anti-GNA33 mAb 25): 0 |
| PAH FVQ QTA Q (Ac-PAHFVQQTAQ) |  |  | Relative Binding (of anti-GNA33 mAb 25) (anti-GNA33 mAb 25): 0 |
| PAHFVQQTPQ (Ac-PAHFVQQTPQ) |  | 10 Dye Units |  |
| PAK FVQ QTP A (PAHFVQQTPA) |  |  | Relative Binding (of anti-GNA33 mAb 25) (anti-GNA33 mAb 25): 2 |

| Molecule | Dye Units (binding of anti-GNA33 mAb 25) (anti-GNA33 mAb 25; [12]) | Dye Units (binding of anti-GNA33 mAb 25) (anti-GNA33 mAb 25; [13]) | other results |
| --- | --- | --- | --- |
| PGH FVQ QTP Q (Ac-PGHFVQQTPQ) |  |  | Relative Binding (of anti-GNA33 mAb 25) (anti-GNA33 mAb 25): 8 |
| QAFQTPVHSF | 30 Dye Units |  |  |
| QDVSAQAFQT | 0 Dye Units |  |  |
| QQTPQSQPTL (Ac-QQTPQSQPTL) |  | 0 Dye Units |  |
| QTPQSQPTLV (Ac-QTPQSQPTLV) |  | 2 Dye Units |  |
| QTPVHSFQAK | 19 Dye Units |  |  |
| SAQAFQTPVH | 29 Dye Units |  |  |
| TPAHFVQQTP |  | 8 Dye Units |  |
| TPQSQPTVP |  | 2 Dye Units |  |
| TPVHSFQAKQ | 2 Dye Units |  |  |
| VQQTPQSQPT (Ac-VQQTPQSQPT) |  | 4 Dye Units |  |
| VSAQAFQTPV | 27 Dye Units |  |  |
| YTPAHFVQQT (Ac-YTPAHFVQQT) |  | 0 Dye Units |  |
| meningococcal Por A P1.2-specific subtyping mAb (MN16C13F4, subclass IgG2a) (antibody) |  |  | BC50, human complement [1]: < 0.5 µg/mL; BC50, human complement [2]: < 0.5 µg/mL; BC50, human complement [3]: < 0.5 µg/mL; BC50, human complement [4]: < 0.5 µg/mL; BC50, human complement [5]: < 0.5 µg/mL; BC50, human complement [6]: < 0.5 µg/mL; BC50, human complement [7]: < 0.5 µg/mL; BC50, human complement [8]: < 0.5 µg/mL; BC50, human complement [9]: < 0.5 µg/mL |
| B1 |  |  | antibody elicited by immunization [10]: elicited bactericidal antibody; serum bactericidal antibody titers [11]: high |
